According to patent publication US4906618A, “Prophylactic and therapeutic agent against swine dysentery” (Fujisawa Pharmaceutical Co., Ltd., priority 1986, dated 1990):
Read-outs that look alike come from different tables or passages of the source.

What was measured:
[1] = background statement; cited from earlier work
[2] = test system: Treponema hyodysenteriae ATCC31212; test: Therapeutic effect on experimentally induced swine dysentery in piglets; assay type: in vivo, piglets (Landace×Large White crossbred); settings: solution in water; for (average) days of disappearance of fecal T. h: detection limit 10^2 CFU/g of feces
Procedure: Seven piglets, LW (Landace×Large White crossbred) male, were used. The initial body weight at the time of inoculation of infective materials ranged from 6.5 to 8.5 kg. Piglets were divided into 4 groups ([…] and 1 group of 1 head) and were maintained in stainless cages (90×90 cm) with raised plastic net floors at 28±2° C. Feed [Milk replacer for piglet] and water were supplied ad libitum except the duration of fasting. Infective materials used were prepared as follows. A total of 300 g of mucous haemorrhagic feces, large intestinal (from caecum through rectum) contents, and mucosa obtained from a clinically affected pig (3 days after onset of swine dysentery), which was previously inoculated into its caecum with pure culture of Treponema hyodysenteriae ATCC31212 (about 3×10^9 colony forming units/head) by surgical operation, were suspended, diluted finally 2.5 times with phosphate-bufferized saline and minced by biotron homogenizer (trademark, made by Biotrona Co., Ltd.).
For the purpose of infection, all piglets were inoculated individually with about 90 g of the infective materials after 22 hours' fasting.
Treatment were done once a day for 2 consecutive days from the 5th day post inoculation.

[3] = Acute toxicity test in mice; assay type: in vivo, ddy mice; settings: single intravenous dose 20 mg (1 g/kg), five mice, 10 days of observation
Procedure: Further, in the acute toxicity test, each of five ddy mice (5-week old, male, 20 g in weight), was intraveneously given a single dose of WS-1627A, B, C or D 20 mg (lg/kg) and all survived.

[4] = Growth promoting effect in male broiler chickens; assay type: in vivo, male broiler chickens (chunky); settings: for Average body weight gain at one week after the feeding: control 95.3; for Average final body weight at one week after the feeding: control 183.8; for Efficiency of feed utilization: one week, control 2.02
Text: 8-Days-old male broiler chickens (chunky) were divided into 3 groups i.e. 2 treatment groups and a control group, each group of which consisted of 10 chicks. They were fed continuously with the feed described in Table 8.
The above Basal ration II +

Treponema hyodysenteriae = test: In vitro activity (MIC) against Treponema hyodysenteriae, agar dilution; assay type: cell-based; settings: for MIC: Brachyspira hyodysenteriae, read-out: MIC (minimum inhibitory concentration); for MIC (minimum inhibitory concentration): 72 hours anaerobic, 37° C.
Procedure: The test organisms were grown anaerobically for 96 hours on Trypticase soy agar plate supplemented with 5% sheep blood. Appropriate amounts of physiological saline solution were poured into each agar plate to make a cell-suspension of test organism, which was finally adjusted at the cell density of 10^6 colony forming units (CFU)/ml. Freshly prepared Trypticase soy agar plates supplemented with 5% sheep blood which were containing serial two-fold dilutions of each of the compounds as mentioned below were inoculated with a loopful (about 5 μl) of the above-mentioned cell-suspension. The MIC (minimum inhibitory concentration) values were determined after 72 hours of anaerobical incubation at 37° C. in Gas Pak jars.

[5] = test system: Treponema hyodysenteriae S5709; test: Protective effect against experimental infection of Treponema hyodysenteriae in mice; assay type: in vivo, mice (ddy); settings: 5 mg/kg, oral, once a day on first and second day after challenge, one week after infection
Procedure: 5 week-old mice (ddy, .male.) were used in these experiments. Mice were orally infected with 1.8×10^7 cells of Treponema hyodysenteriae S5709 grown for 96 hours on Trypticase soy agar plate supplemented with 5% sheep blood. On the first and second day after challenge, test compounds were given by oral administration once a day. One week after infection, the efficacy of the antibiotics on mice suffering from dysentery was determined as follows. Cecum contents from infected mice were suspended in 2 ml of saline solution, diluted twenty times with Trypticase soy medium supplemented with 5% sheep blood and cultured for T. hyodysenteriae on agar plate of Trypticase soy medium supplemented with 5% sheep blood at 37° C. for 72 hours in Gas Pak jars. The numbers of T. hyodysenteriae colony appeared on the plates were counted. Mice that gave no colony formations of T. hyodysenteriae were regarded as cured mice.

[6] = Growth promoting effect in pigs; assay type: in vivo, pigs (LWD strain); settings: for Efficiency of feed utilization: 6 weeks, control 2.19; for Average body weight gain at the 6th week after the feeding: control 18.0; for Average final body weight at the 6th week after the starting of the feeding: control 28.0
Text: Five sets of 24 pigs (33 days-old, LWD strain) were used. Each 24 pigs were divided into 4 groups, i.e. 3 treatment groups and a control group. Each group consisted of 3 barrows and 3 female pigs. They were fed continuously with the feed described in Table 6.
The above basal ration I +

[7] = intramuscularly 10 mg/kg body weight × 2 day, 1 pig
[8] = orally 2.5 mg/kg body weight × 2 day, 2 pigs
[9] = Treatment group I, 10 ppm in feed
[10] = Treatment group II, 50 ppm in feed
[11] = Treatment group II, 20 ppm in feed
[12] = Treatment group III, 40 ppm in feed

SMILES: COC(=O)N/N=C/c1c[n+]([O-])c2ccccc2[n+]1[O-] [carbadox]
- mutagenicity [1]: strong mutagenic substance

SMILES: CC(=O)C1OC(Oc2ccc(C=C(C)C(=O)NC3C(O)C(O)C4OCOC4C3O)cc2O)C(O)C1O (stereo not shown) [WS-1627B, hygromycin]
- (average) days of recovery to normal stool [2, 7]: 1 days
- (average) days of disappearance of fecal T. h [2, 7]: 1 days
- (average) days of recovery to normal stool [2, 8]: 2 days
- (average) days of disappearance of fecal T. h [2, 8]: 2 days
- survival [3]: all survived
- toxic symptom [3]: no toxic symptom was observed
- Average body weight gain at one week after the feeding [4, 9]: 116.5 g
- Average final body weight at one week after the feeding [4, 9]: 204.5 g
- Efficiency of feed utilization [4, 9]: 2.00
- Average body weight gain at one week after the feeding [4, 10]: 121 g
- Average final body weight at one week after the feeding [4, 10]: 209 g
- Efficiency of feed utilization [4, 10]: 1.67
- Solubility (Solubility; acetone): Insoluble
- Solubility (Solubility; chloroform): Insoluble
- Solubility (Solubility; ethyl acetate): Insoluble
- Solubility (Solubility; methanol): Soluble
- Solubility (Solubility; water): Soluble
- MIC (Treponema hyodysenteriae; 72 h): < 0.8 µg/mL
- MIC (Treponema hyodysenteriae; ATCC31212, 72 h): < 0.8 µg/mL
- antimicrobial activities against Treponema hyodysenteriae (Treponema hyodysenteriae; statement in words): strong antimicrobial activities
- MIC (minimum inhibitory concentration) (Treponema hyodysenteriae; strain S5709): < 0.8 µg/mL
- MIC (minimum inhibitory concentration) (Treponema hyodysenteriae; strain TH81013): < 0.8 µg/mL
- cured/treated ([5]; listed as WS1627B): 7/7
- Efficiency of feed utilization [6, 9]: 2.05
- Average body weight gain at the 6th week after the feeding [6, 9]: 19.6 kg
- Average final body weight at the 6th week after the starting of the feeding [6, 9]: 29.6 kg
- Efficiency of feed utilization [6, 11]: 2.11
- Average body weight gain at the 6th week after the feeding [6, 11]: 19.2 kg
- Average final body weight at the 6th week after the starting of the feeding [6, 11]: 29.2 kg
- Efficiency of feed utilization [6, 12]: 2.09
- Average body weight gain at the 6th week after the feeding [6, 12]: 18.9 kg
- Average final body weight at the 6th week after the starting of the feeding [6, 12]: 28.9 kg

SMILES: CC(=O)C1OC(Oc2ccc(C=C(C)C(=O)NC3C(O)C(O)C4OCOC4C3O)cc2O)C(O)C1O (stereo not drawn) [WS-1627D, epi-hygromycin]
- cured/treated ([5]; listed as WS1627D): 4/7
